What was measured:
Type in all cases: in vivo
Cyperus difformis = experiment: Test Example 3: herbicidal effect by application to foliage (Wagner pot, water depth 0.1-0.5 cm); conditions: Nineteenth Table; for E (herbicidal effect grade): application to foliage
How it was run: (§1)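 Greenhouse pot test, 25–30 °C, alluvial soil. Sown seedlings grown 14 days then sprayed on leaves and stems with emulsion diluted to target g/ha. Rating at 3 weeks, 0–5 scale (0 ≤5%, 5 ≥90%).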

[1] = tested on: Echinochloa crus-galli var. crus-galli; experiment: as above; conditions: Nineteenth Table; for H (herbicidal effect grade): application to foliage
How it was run: as §1

Leptochloa chinensis = experiment: as above; conditions: Nineteenth Table; for D (herbicidal effect grade): application to foliage
How it was run: as §1

Abutilon theophrasti = experiment: Test Example 4: herbicidal effect by application to foliage (diluvial soil, plastic box); conditions: for M (Abutilon theophrasti) herbicidal effect: application to foliage, application herbicide amount 320 g/ha; for M: Application herbicide amount 320 g/ha
How it was run: (§2)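 Scores run from 0 (herbicidal ratio ≤5%) to 5 (≥90%, almost fully withered) and were assessed three weeks after foliar spraying. Seedlings had been raised for 14 days at 25-30° C in sterilized diluvial soil before treatment, with the emulsion diluted in water to the stated g/ha dose.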

Alopecurus myosuroides = experiment: as above; conditions: for J (Alopecurus myosuroides) herbicidal effect: application to foliage, application herbicide amount 320 g/ha; for J: Application herbicide amount 320 g/ha
How it was run: as §2

Apera spica-venti. = experiment: as above; conditions: for L (Apera spica-venti.) herbicidal effect: application to foliage, application herbicide amount 320 g/ha; for L: Application herbicide amount 320 g/ha
How it was run: as §2

Avena fatua = experiment: as above; conditions: for I (Avena fatua) herbicidal effect: application to foliage, application herbicide amount 320 g/ha; for I: Application herbicide amount 320 g/ha
How it was run: as §2

Chenopodium album = experiment: as above; conditions: for O (Chenopodium album) herbicidal effect: application to foliage, application herbicide amount 320 g/ha; for O: Application herbicide amount 320 g/ha
How it was run: as §2

Digitaria ciliaris = experiment: as above; conditions: for F (Digitaria ciliaris) herbicidal effect: application to foliage, application herbicide amount 320 g/ha; for F: Application herbicide amount 320 g/ha
How it was run: as §2

[2] = tested on: Echinochloa crus-galli var. crus-galli; experiment: as above; conditions: for H (Echinochloa crus-galli var. crus-galli) herbicidal effect: application to foliage, application herbicide amount 320 g/ha; for H: Application herbicide amount 320 g/ha
How it was run: as §2

Galium spurium = experiment: as above; conditions: for Q (Galium spurium) herbicidal effect: application to foliage, application herbicide amount 320 g/ha; for Q: Application herbicide amount 320 g/ha
How it was run: as §2

Lolium multiflorum Lam. = experiment: as above; conditions: for K (Lolium multiflorum Lam.) herbicidal effect: application to foliage, application herbicide amount 320 g/ha; for K: Application herbicide amount 320 g/ha
How it was run: as §2

Setaria viridis = experiment: as above; conditions: for G (Setaria viridis) herbicidal effect: application to foliage, application herbicide amount 320 g/ha; for G: Application herbicide amount 320 g/ha
How it was run: as §2

Veronica persica = experiment: as above; conditions: for R (Veronica persica) herbicidal effect: application to foliage, application herbicide amount 320 g/ha; for R: Application herbicide amount 320 g/ha
How it was run: as §2

[3] = application herbicide amount 320 g/ha
[4] = application herbicide amount 400 g/ha

Cc1nnc(NC(=O)c2ccc(C(F)(F)F)n3c(S(C)(=O)=O)nnc23)o1 [1-040]
E (Cyperus difformis) herbicidal ratio grade (Cyperus difformis; [3]): 4 (Herbicidal ratio of 70% or more and less than 90%) | H (Echinochloa crus-galli var. crus-galli) herbicidal ratio grade [1, 3]: 4 (Herbicidal ratio of 70% or more and less than 90%) | D (Leptochloa chinensis) herbicidal ratio grade (Leptochloa chinensis; [3]): 5 (Herbicidal ratio of 90% or more (almost completely withered)) | M (Abutilon theophrasti) herbicidal effect (Abutilon theophrasti): 5 (Herbicidal ratio of 90% or more (almost completely withered)) | J (Alopecurus myosuroides) herbicidal effect (Alopecurus myosuroides): 3 (Herbicidal ratio of 40% or more and less than 70%) | L (Apera spica-venti.) herbicidal effect (Apera spica-venti.): 4 (Herbicidal ratio of 70% or more and less than 90%) | I (Avena fatua) herbicidal effect (Avena fatua): 3 (Herbicidal ratio of 40% or more and less than 70%) | O (Chenopodium album) herbicidal effect (Chenopodium album): 5 (Herbicidal ratio of 90% or more (almost completely withered)) | F (Digitaria ciliaris) herbicidal effect (Digitaria ciliaris): 5 (Herbicidal ratio of 90% or more (almost completely withered)) | H (Echinochloa crus-galli var. crus-galli) herbicidal effect [2]: 4 (Herbicidal ratio of 70% or more and less than 90%) | Q (Galium spurium) herbicidal effect (Galium spurium): 3 (Herbicidal ratio of 40% or more and less than 70%) | K (Lolium multiflorum Lam.) herbicidal effect (Lolium multiflorum Lam.): 3 (Herbicidal ratio of 40% or more and less than 70%) | G (Setaria viridis) herbicidal effect (Setaria viridis): 4 (Herbicidal ratio of 70% or more and less than 90%) | R (Veronica persica) herbicidal effect (Veronica persica): 5 (Herbicidal ratio of 90% or more (almost completely withered))

Cc1nnc(NC(=O)c2ccc(C(F)(F)F)n3c(C4CC4)nnc23)o1 [1-010]
E (Cyperus difformis) herbicidal ratio grade (Cyperus difformis; [4]): 4 (Herbicidal ratio of 70% or more and less than 90%) | H (Echinochloa crus-galli var. crus-galli) herbicidal ratio grade [1, 4]: 5 (Herbicidal ratio of 90% or more (almost completely withered)) | D (Leptochloa chinensis) herbicidal ratio grade (Leptochloa chinensis; [4]): 5 (Herbicidal ratio of 90% or more (almost completely withered)) | M (Abutilon theophrasti) herbicidal effect (Abutilon theophrasti): 5 (Herbicidal ratio of 90% or more (almost completely withered)) | J (Alopecurus myosuroides) herbicidal effect (Alopecurus myosuroides): 2 (Herbicidal ratio of 20% or more and less than 40%) | L (Apera spica-venti.) herbicidal effect (Apera spica-venti.): 2 (Herbicidal ratio of 20% or more and less than 40%) | I (Avena fatua) herbicidal effect (Avena fatua): 3 (Herbicidal ratio of 40% or more and less than 70%) | O (Chenopodium album) herbicidal effect (Chenopodium album): 5 (Herbicidal ratio of 90% or more (almost completely withered)) | F (Digitaria ciliaris) herbicidal effect (Digitaria ciliaris): 3 (Herbicidal ratio of 40% or more and less than 70%) | H (Echinochloa crus-galli var. crus-galli) herbicidal effect [2]: 4 (Herbicidal ratio of 70% or more and less than 90%) | Q (Galium spurium) herbicidal effect (Galium spurium): 1 (Herbicidal ratio of 5% or more and less than 20%) | K (Lolium multiflorum Lam.) herbicidal effect (Lolium multiflorum Lam.): 1 (Herbicidal ratio of 5% or more and less than 20%) | G (Setaria viridis) herbicidal effect (Setaria viridis): 3 (Herbicidal ratio of 40% or more and less than 70%) | R (Veronica persica) herbicidal effect (Veronica persica): 5 (Herbicidal ratio of 90% or more (almost completely withered))

Cc1nnc(NC(=O)c2ccc(C(F)(F)F)n3c(C=O)nnc23)o1 [1-068]
E (herbicidal effect grade) (Cyperus difformis; [3]): 5 (Herbicidal ratio of 90% or more (almost completely withered)) | H (herbicidal effect grade) [1, 3]: 5 (Herbicidal ratio of 90% or more (almost completely withered)) | D (herbicidal effect grade) (Leptochloa chinensis; [3]): 5 (Herbicidal ratio of 90% or more (almost completely withered)) | M (Abutilon theophrasti): 3 (Herbicidal ratio of 40% or more and less than 70%) | J (Alopecurus myosuroides): 1 (Herbicidal ratio of 5% or more and less than 20%) | L (Apera spica-venti.): 1 (Herbicidal ratio of 5% or more and less than 20%) | I (Avena fatua): 1 (Herbicidal ratio of 5% or more and less than 20%) | O (Chenopodium album): 5 (Herbicidal ratio of 90% or more (almost completely withered)) | F (Digitaria ciliaris): 5 (Herbicidal ratio of 90% or more (almost completely withered)) | H [2]: 5 (Herbicidal ratio of 90% or more (almost completely withered)) | Q (Galium spurium): 3 (Herbicidal ratio of 40% or more and less than 70%) | K (Lolium multiflorum Lam.): 1 (Herbicidal ratio of 5% or more and less than 20%) | G (Setaria viridis): 4 (Herbicidal ratio of 70% or more and less than 90%) | R (Veronica persica): 4 (Herbicidal ratio of 70% or more and less than 90%)

Cc1nnc(NC(=O)c2ccc(C(F)(F)F)n3c(N(C)C)nnc23)o1 [1-076]
E (herbicidal effect grade) (Cyperus difformis; [3]): 5 (Herbicidal ratio of 90% or more (almost completely withered)) | H (herbicidal effect grade) [1, 3]: 5 (Herbicidal ratio of 90% or more (almost completely withered)) | D (herbicidal effect grade) (Leptochloa chinensis; [3]): 5 (Herbicidal ratio of 90% or more (almost completely withered)) | M (Abutilon theophrasti): 4 (Herbicidal ratio of 70% or more and less than 90%) | J (Alopecurus myosuroides): 3 (Herbicidal ratio of 40% or more and less than 70%) | L (Apera spica-venti.): 4 (Herbicidal ratio of 70% or more and less than 90%) | I (Avena fatua): 3 (Herbicidal ratio of 40% or more and less than 70%) | O (Chenopodium album): 5 (Herbicidal ratio of 90% or more (almost completely withered)) | F (Digitaria ciliaris): 5 (Herbicidal ratio of 90% or more (almost completely withered)) | H [2]: 5 (Herbicidal ratio of 90% or more (almost completely withered)) | Q (Galium spurium): 2 (Herbicidal ratio of 20% or more and less than 40%) | K (Lolium multiflorum Lam.): 3 (Herbicidal ratio of 40% or more and less than 70%) | G (Setaria viridis): 5 (Herbicidal ratio of 90% or more (almost completely withered)) | R (Veronica persica): 4 (Herbicidal ratio of 70% or more and less than 90%)

CC[S+]([O-])c1nnc2c(C(=O)Nc3nnc(C)o3)ccc(C(F)(F)F)n12 (stereo not shown) [1-034]
E (Cyperus difformis) herbicidal ratio grade (Cyperus difformis; [3]): 5 (Herbicidal ratio of 90% or more (almost completely withered)) | H (Echinochloa crus-galli var. crus-galli) herbicidal ratio grade [1, 3]: 5 (Herbicidal ratio of 90% or more (almost completely withered)) | D (Leptochloa chinensis) herbicidal ratio grade (Leptochloa chinensis; [3]): 5 (Herbicidal ratio of 90% or more (almost completely withered)) | M (Abutilon theophrasti) herbicidal effect (Abutilon theophrasti): 5 (Herbicidal ratio of 90% or more (almost completely withered)) | J (Alopecurus myosuroides) herbicidal effect (Alopecurus myosuroides): 1 (Herbicidal ratio of 5% or more and less than 20%) | L (Apera spica-venti.) herbicidal effect (Apera spica-venti.): 3 (Herbicidal ratio of 40% or more and less than 70%) | I (Avena fatua) herbicidal effect (Avena fatua): 3 (Herbicidal ratio of 40% or more and less than 70%) | O (Chenopodium album) herbicidal effect (Chenopodium album): 5 (Herbicidal ratio of 90% or more (almost completely withered)) | F (Digitaria ciliaris) herbicidal effect (Digitaria ciliaris): 5 (Herbicidal ratio of 90% or more (almost completely withered)) | H (Echinochloa crus-galli var. crus-galli) herbicidal effect [2]: 5 (Herbicidal ratio of 90% or more (almost completely withered)) | Q (Galium spurium) herbicidal effect (Galium spurium): 3 (Herbicidal ratio of 40% or more and less than 70%) | K (Lolium multiflorum Lam.) herbicidal effect (Lolium multiflorum Lam.): 3 (Herbicidal ratio of 40% or more and less than 70%) | G (Setaria viridis) herbicidal effect (Setaria viridis): 5 (Herbicidal ratio of 90% or more (almost completely withered)) | R (Veronica persica) herbicidal effect (Veronica persica): 5 (Herbicidal ratio of 90% or more (almost completely withered))

Reference: patent US9708314B2, “Heterocyclic amide compound” (NISSAN CHEMICAL INDUSTRIES, LTD., priority 2013, dated 2017)
